Data on one compound can be found in patent US20180132483A1, “Method of Controlling Phytoparasitic Pests, Agrochemical Composition and Use Thereof” (priority 2016, published 2018).

In the test the test system is soil Fusarium sp. The test can be described thus: Activity against soil Fusarium sp.

Turning to `CC(=O)O.CCCCCCCCCCCCNC(=N)N` [dodine, 1-dodecylguanidinium acetate], the “Activity against soil Fusarium sp.” value is on record as “active”.
